Square brackets hold non-standard residues; d marks the D form. Ends that are not written are not given here. Peptide text beside a SMILES is read from it. * marks the point of attachment. Diglycolyl(TOTA) = NCCCOCCOCCOCCCNC(=O)COCC(=O)*; Propanoyl(3,3-Ph2) = O=C(CC(c1ccccc1)c1ccccc1)*; Chg = N[C@H](C(=O)O)C1CCCCC1; Ahx = NCCCCCC(=O)O

The target in this experiment is T1, myostatin (Homo sapiens, UniProt O14793).
T1 sequence (O14793 267-375): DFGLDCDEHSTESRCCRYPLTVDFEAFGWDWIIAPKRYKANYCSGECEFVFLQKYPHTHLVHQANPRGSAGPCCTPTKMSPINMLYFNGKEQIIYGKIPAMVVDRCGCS
Put plainly: cell-based. Conditions: for remaining activity at 0.3 µM: HEK293, read-out: luciferase activity (relative; myostatin without test sample = 100%). As to the method:
Human embryo kidney cell HEK293 cells were cultured in a 5% (v/v) CO2 incubator set to 37° C. using DMEM (NACALAI TESQUE, INC.) including a 10% (v/v) fetal bovine serum (FBS) added with a 1% (v/v) non-essential amino acid (Wako Pure Chemical Corporation).
(2) In Vitro Reporter Assay
HEK293 cells were seeded on a D-Lys-corted 96-well transparent plate (Thermo Fisher Scientific Inc.) in an amount of 2.0×10^4 cells (100 μL DMEM+10% (v/v) FBS) per well and were cultured for 24 hours.
The cells were cultured at 37° C. for 24 hours, and after the cell culture solution was replaced with serum-free DMEM, the cells were cultured for 8 hours. Incidentally, pGL4.48 [luc2P/SBE/Hygro] includes firefly luciferase reporter gene luc2P under Smad binding region (SBE) control, and when a signaling pathway by the myostatin is activated, intracellular Smad forms a complex, and the complex is bonded to SBE to promote transcription of luc2P.
The peptide as a test sample was suspended as a stock solution using DMSO to become 10 mM and stored at −30° C. Before 1 hour from addition to the culture medium, the peptide and a myostatin (Merck Millipore Corp.) were suspended with serum-free DMEM and left to stand still at room temperature (25° C.) for 20 minutes. Subsequently, a peptide with an arbitrary final concentration (0.3 to […]) and 8 ng/mL of myostatin were added to the culture medium, and then culturing was performed for 4 hours. After culturing for 4 hours, the culture solution was removed by an aspirator and the cells were washed with 1×PBS. Thereafter, Passive Lysis buffer (Promega Corporation) was added in an amount of 50 μL per well to dissolve the cells. The dissolving solution was subjected to centrifugal separation at 4500 rpm for 6 minutes under the condition of 4° C. After 20 μL of supernatant subjected to centrifugal separation was transferred to a white 96-well plate (Costar), 50 μL of Luciferase Assay Reagent (Promega Corporation) was then added, emission was detected by Luminoskan Ascent (Thermo Fisher Scientific Inc.), and a firefly luciferase activity was measured. Further, after 50 μL of Stop & Glo Buffer (Promega Corporation) was added, emission was detected by Luminoskan Ascent, and a Renilla luciferase activity was measured to be regarded as an internal control.

Turning to `CC[C@H](C)[C@H](NC(=O)[C@H](CCC(N)=O)NC(=O)[C@@H](NC(=O)[C@H](CCCCN)NC(=O)[C@@H](NC(=O)[C@@H](Cc1c[nH]c2ccccc12)NC(=O)[C@H](CCCNC(=N)N)NC(=O)[C@@H](NC(=O)[C@H](Cc1ccc(O)cc1)NC(=O)[C@@H](N)Cc1c[nH]c2ccccc12)[C@@H](C)CC)[C@@H](C)CC)C1CCCCC1)C(=O)N[C@@H](Cc1c[nH]c2ccccc12)C(=O)N[C@@H](CO)C(=O)N[C@@H](CCCCN)C(=O)N[C@H](C(=O)N[C@@H](CCCNC(=N)N)C(=O)N[C@@H](CC(C)C)C(N)=O)C1CCCCC1` [nPDM-86, WYIRwIK-Chg-QIWSK-Chg-RL-NH2] (H-WYIR[dW]IK[Chg]QIWSK[Chg]RL-NH2), the remaining activity at 0.3 µM is not above 60%. Moreover, where the note is “comparison of IC50 values”, the “inhibitory activity relative to 3d” value is “approximately two times higher inhibitory activity”. Besides, the IC50 (commonly the concentration at which inhibition is half-maximal) (read-out: IC50 value, myostatin inhibitory activity, concentration range of 0.016 to 2 μM) worked out at 131 nM. Regarding `CC[C@H](C)[C@H](NC(=O)[C@H](CCC(N)=O)NC(=O)[C@@H](NC(=O)[C@H](CCCCN)NC(=O)[C@@H](NC(=O)[C@H](Cc1c[nH]c2ccccc12)NC(=O)[C@H](CCCNC(=N)N)NC(=O)[C@@H](NC(=O)[C@H](Cc1ccc(O)cc1)NC(=O)[C@@H](N)Cc1c[nH]c2ccccc12)[C@@H](C)CC)[C@@H](C)CC)C1CCCCC1)C(=O)N[C@@H](Cc1c[nH]c2ccccc12)C(=O)N[C@@H](CO)C(=O)N[C@@H](CCCCN)C(=O)N[C@@H](CC(C)C)C(=O)N[C@@H](CCCNC(=N)N)C(=O)N[C@@H](CC(C)C)C(N)=O` [nPDM-64, WYIRWIK-Chg-QIWSKLRL-NH2] (H-WYIRWIK[Chg]QIWSKLRL-NH2), the remaining activity at 0.3 µM is not above 60%.

`CC[C@H](C)[C@H](NC(=O)[C@H](CCC(N)=O)NC(=O)[C@@H](NC(=O)[C@H](CCCCN)NC(=O)[C@@H](NC(=O)[C@H](Cc1c[nH]c2ccccc12)NC(=O)[C@H](CCCNC(=N)N)NC(=O)[C@@H](NC(=O)[C@H](Cc1ccc(O)cc1)NC(=O)[C@@H](N)Cc1c[nH]c2ccccc12)[C@@H](C)CC)[C@@H](C)CC)C1CCCCC1)C(=O)N[C@@H](Cc1c[nH]c2ccccc12)C(=O)N[C@@H](CO)C(=O)N[C@@H](CCCCN)C(=O)N[C@H](C(=O)N[C@@H](CCCNC(=N)N)C(=O)N[C@@H](CC(C)C)C(N)=O)C1CCCCC1` [nPDM-66, WYIRWIK-Chg-QIWSK-Chg-RL-NH2] (H-WYIRWIK[Chg]QIWSK[Chg]RL-NH2): the remaining activity at 0.3 µM was not above 60%. The same measure, in the same setting: the value for `CC[C@H](C)[C@H](NC(=O)[C@H](CCC(N)=O)NC(=O)[C@@H](NC(=O)[C@H](CCCCN)NC(=O)[C@@H](NC(=O)[C@@H](Cc1c[nH]c2ccccc12)NC(=O)[C@H](CCCNC(=N)N)NC(=O)[C@@H](NC(=O)[C@H](Cc1ccc(O)cc1)NC(=O)[C@H](Cc1c[nH]c2ccccc12)NC(=O)CNC(=O)COCC(=O)NCCCOCCOCCOCCCN)[C@@H](C)CC)[C@@H](C)CC)C1CCCCC1)C(=O)N[C@@H](Cc1c[nH]c2ccccc12)C(=O)N[C@@H](CO)C(=O)N[C@@H](CCCCN)C(=O)N[C@H](C(=O)N[C@@H](CCCNC(=N)N)C(=O)N[C@@H](CC(C)C)C(N)=O)C1CCCCC1` [PDM-90, R^116-WYIRwIK-Chg-QIWSK-Chg-RL-NH2] ({Diglycolyl(TOTA)}-GWYIR[dW]IK[Chg]QIWSK[Chg]RL-NH2) was not above 60%; that for `CC[C@H](C)[C@H](NC(=O)[C@H](CCC(N)=O)NC(=O)[C@@H](NC(=O)[C@H](CCCCN)NC(=O)[C@@H](NC(=O)[C@H](Cc1c[nH]c2ccccc12)NC(=O)[C@H](CCC(=O)O)NC(=O)[C@@H](NC(=O)[C@H](Cc1ccc(O)cc1)NC(=O)[C@@H](N)Cc1c[nH]c2ccccc12)[C@@H](C)CC)[C@@H](C)CC)[C@@H](C)CC)C(=O)N[C@@H](Cc1c[nH]c2ccccc12)C(=O)N[C@@H](CO)C(=O)N[C@@H](CCCCN)C(=O)N[C@@H](CC(C)C)C(=O)N[C@@H](CCCNC(=N)N)C(=O)N[C@@H](CC(C)C)C(N)=O` [nPDM-55, WYIEWIKIQIWSKLRL-NH2] (H-WYIEWIKIQIWSKLRL-NH2) was not above 60%. Turning to `CC[C@H](C)[C@H](NC(=O)[C@H](CCC(N)=O)NC(=O)[C@@H](NC(=O)[C@H](CCCNC(=N)N)NC(=O)[C@@H](NC(=O)[C@@H](Cc1c[nH]c2ccccc12)NC(=O)[C@H](CCCNC(=N)N)NC(=O)[C@@H](NC(=O)[C@H](Cc1ccc(O)cc1)NC(=O)[C@@H](N)Cc1c[nH]c2ccccc12)[C@@H](C)CC)[C@@H](C)CC)C1CCCCC1)C(=O)N[C@@H](Cc1c[nH]c2ccccc12)C(=O)N[C@@H](CO)C(=O)N[C@@H](CCCNC(=N)N)C(=O)N[C@H](C(=O)N1CCC[C@H]1C(=O)N[C@@H](CC(C)C)C(N)=O)C1CCCCC1` [nPDM-80, WYIRwIR-Chg-QIWSR-Chg-PL-NH2] (H-WYIR[dW]IR[Chg]QIWSR[Chg]PL-NH2), the remaining activity at 0.3 µM was not above 60%. `CC[C@H](C)[C@H](NC(=O)[C@H](CCC(N)=O)NC(=O)[C@@H](NC(=O)[C@H](CCCCN)NC(=O)[C@@H](NC(=O)[C@@H](Cc1c[nH]c2ccccc12)NC(=O)[C@H](CCCNC(=N)N)NC(=O)[C@@H](NC(=O)[C@H](Cc1ccc(O)cc1)NC(=O)[C@H](Cc1c[nH]c2ccccc12)NC(=O)CCCCCNC(=O)COCC(=O)NCCCOCCOCCOCCCN)[C@@H](C)CC)[C@@H](C)CC)C1CCCCC1)C(=O)N[C@@H](Cc1c[nH]c2ccccc12)C(=O)N[C@@H](CO)C(=O)N[C@@H](CCCCN)C(=O)N[C@H](C(=O)N[C@@H](CCCNC(=N)N)C(=O)N[C@@H](CC(C)C)C(N)=O)C1CCCCC1` [PDM-89, R^115-WYIRwIK-Chg-QIWSK-Chg-RL-NH2] ({Diglycolyl(TOTA)-Ahx}-WYIR[dW]IK[Chg]QIWSK[Chg]RL-NH2): the remaining activity at 0.3 µM is not above 60%. In the case of `CC[C@H](C)[C@H](NC(=O)[C@H](CCC(N)=O)NC(=O)[C@@H](NC(=O)[C@H](CCCCN)NC(=O)[C@@H](NC(=O)[C@H](Cc1c[nH]c2ccccc12)NC(=O)[C@H](CCC(N)=O)NC(=O)[C@@H](NC(=O)[C@H](Cc1ccc(O)cc1)NC(=O)[C@@H](N)Cc1c[nH]c2ccccc12)[C@@H](C)CC)[C@@H](C)CC)[C@@H](C)CC)C(=O)N[C@@H](Cc1c[nH]c2ccccc12)C(=O)N[C@@H](CO)C(=O)N[C@@H](CCCCN)C(=O)N[C@@H](CC(C)C)C(=O)N[C@@H](CCCNC(=N)N)C(=O)N[C@@H](CC(C)C)C(N)=O` [nPDM-55/E31Q, WYIQWIKIQIWSKLRL-NH2] (H-WYIQWIKIQIWSKLRL-NH2), the remaining activity at 0.3 µM was not above 60%. The same measure, in the same setting: the figure for `CC[C@H](C)[C@H](NC(=O)[C@H](Cc1ccc(O)cc1)NC(=O)CC(c1ccccc1)c1ccccc1)C(=O)N[C@@H](CCCNC(=N)N)C(=O)N[C@@H](Cc1c[nH]c2ccccc12)C(=O)N[C@H](C(=O)N[C@@H](CCCNC(=N)N)C(=O)N[C@H](C(=O)N[C@@H](CCC(N)=O)C(=O)N[C@H](C(=O)N[C@@H](Cc1c[nH]c2ccccc12)C(=O)N[C@@H](CO)C(=O)N[C@@H](CCCNC(=N)N)C(=O)N[C@H](C(=O)N1CCC[C@H]1C(=O)N[C@@H](CC(C)C)C(N)=O)C1CCCCC1)[C@@H](C)CC)C1CCCCC1)[C@@H](C)CC` [nPDM-85, R^114-YIRWIR-Chg-QIWSR-Chg-PL-NH2] ({Propanoyl(3,3-Ph2)}-YIRWIR[Chg]QIWSR[Chg]PL-NH2) is not above 60%. As to “SRIEAIKIQILSKLRL-NH2 (listed as Mus musculus) [mMPS(28-43), reference compound]”, the myostatin inhibitory activity result (final concentration of 1 μM) is given as “a high myostatin inhibitory activity was not recognized” and the myostatin inhibitory activity entry (final concentration of 10 μM) is reported as “the myostatin inhibitory activity was not recognized”.

The record behind these values is patent US11566047B2, “Peptide or pharmaceutically acceptable salt thereof, or prodrug thereof” (TOKYO UNIVERSITY OF PHARMACY & LIFE SCIENCES, priority 2016, dated 2023).
